Values quoted from earlier work as cited in US20030072777A1, “Combinatorial anti-acne compositions” (priority 2001, published 2003).
Read-outs that look alike come from different tables or passages of the source.

Key:
P. acnes = conditions: 5 percent benzoyl peroxide two times daily for five days
[1] = system: inflammatory lesions and comedones of acne vulgaris
sebaceous glands = conditions: retinoid treatment

SMILES | Reduction of P. acnes population (P. acnes) | Average percent reduction of non-inflamed lesions (mean comedone counts) ([1]; Week 2, data from Chalker et al. FIG. 1) | Average percent reduction of inflamed lesions (mean inflammatory lesion counts) ([1]; Week 2, data from Chalker et al. FIG. 4) | Average percent reduction of non-inflamed lesions (mean comedone counts) ([1]; Week 4, data from Chalker et al. FIG. 1) | Average percent reduction of inflamed lesions (mean inflammatory lesion counts) ([1]; Week 4, data from Chalker et al. FIG. 4) | Average percent reduction of non-inflamed lesions (mean comedone counts) ([1]; Week 6, data from Chalker et al. FIG. 1) | Average percent reduction of inflamed lesions (mean inflammatory lesion counts) ([1]; Week 6, data from Chalker et al. FIG. 4) | Shrinkage of the glands (sebaceous glands)
O=C(OOC(=O)c1ccccc1)c1ccccc1 [5.0% Benzoyl peroxide, Benzoyl peroxide] | more than 95% | 12% | 27% | 15% | 21% | 28% | 46% | 
CC1=C(/C=C/C(C)=C/C=C/C(C)=C\C(=O)O)C(C)(C)CCC1 [isotretinoin, 13-cis retinoic acid] |  |  |  |  |  |  |  | about 90%
